Data from US20070021430A1, “Novel crystalline form of a phosphoric acid salt of a dipeptidyl peptidase-iv inhibitor” (priority 2003, published 2007).

Assays:
solubility in water = type: physicochemical
[1] = solid-state stability / conversion of crystal form; type: physicochemical
Method: Form IV was prepared by heating the above monohydrate at 120° C. for about 2 h or by heating the monohydrate above 58° C. for about 8 h. Form IV is metastable and converts into the crystalline monohydrate slowly under ambient conditions and rapidly under high relative humidity (98%) at room temperature. Form IV can also be converted to anhydrate Form I in about 1 h at a temperature above 140° C.

- solubility in water (solubility in water): high
- conversion into the crystalline monohydrate ([1]; ambient conditions): slowly
- conversion into the crystalline monohydrate ([1]; high relative humidity (98%) at room temperature): rapidly
- physical stability of the crystal form ([1]; solid state): metastable
- time for conversion to anhydrate Form I ([1]; temperature above 140° C.): about 1 h
SMILES: N[C@@H](CC(=O)N1CCn2c(nnc2C(F)(F)F)C1)Cc1cc(F)c(F)cc1F [Form IV, (2R)-4-oxo-4-[3-(trifluoromethyl)-5,6-dihydro[1,2,4]triazolo[4,3-a]pyrazin-7(8H)-yl]-1-(2,4,5-trifluorophenyl)butan-2-amine dihydrogenphosphate anhydrate Form IV]
